Results from publication PMC11187217, “Anti-adhesive, anti-biofilm and fungicidal action of newly synthesized gemini quaternary ammonium salts” (Scientific Reports, 2024).

System: Salmonella Typhimurium TA100
Settings: TA100, positive control 15 μg/mL
Method: The mutagenic potential of the tested gemini QAS was determined using the Ames test[83] using Salmonella Typhimurium TA98 and Salmonella Typhimurium TA100 with defects in histidine biosynthesis. The culture of S. Typhimurium TA98 and S. Typhimurium TA100 was incubated with shaking at 37 °C for 18 h, centrifuged (3000 rpm, 5 min) and OD = 1.5 was determined, at a wavelength of λ = 590 nm. The agar was dissolved and cooled to 42 °C. […] The media were incubated for 48 h at 37 °C. The positive control for the S. Typhimurium TA98 strain was acriflavin (100 μg/ml), and for the S. Typhimurium TA100 strain, sodium azide (15 μg/ml). The negative control was the culture without tested compound and with NaCl (0,9%). After incubation, the colonies were counted and the mutagenicity index (MR) was determined—the ratio of the number of revertants resulting from the mutagenic effect of the tested compound to the number of spontaneous revertants. Experiment was performed in three repetitions.

With `[N-]=[N+]=[N-].[Na+]` [sodium azide, reference compound] the “Mutagenicity ratio (MR)” value was 25.5 and the Number of colonies (± SD) was 5116.0 ± 5.66.
